Publication PMC10916623, “Tissue distribution and pharmacokinetics of isoxanthohumol from hops in rodents” (Food Science & Nutrition, 2023)
Several values for one entry are separate records, joined by “and”; a condition that tells them apart may be missing. Identical values can stand only once. Like-named read-outs stand apart in the source and are kept apart here.

Experiments:
[1] = Plasma pharmacokinetics after single-gavage administration of IXA to mice; type: in vivo, C57/BL6 mice; details: for Cmax: mean ± SEM
Procedure: Six‐week‐old male C57/BL6 mice (initial BW: 19–24 g; Japan SLC, Shizuoka, Japan) were housed in a room maintained at 23–26°C with a 12‐h light–dark cycle. During the 1‐week acclimatization period, they were allowed free access to a commercial diet (Oriental Yeast Co., Tokyo, Japan) and water. Two days before the experiment, they were fed AIN‐93M (Oriental Yeast Co.). Before drug administration, they were fasted for 20 h, but had free access to water. IXA dissolved in 3% hydroxypropyl‐β‐cyclodextrin and 5% ethanol (Fujifilm; Wako Pure Chemical Corp., Osaka, Japan) was named the injection solution and administered (50 mg/kg BW) to mice intragastrically using a gastric feeding tube (AS ONE, Osaka, Japan). Blood, brain, thymus, heart, lung, liver, spleen, pancreas, kidney, and gastrocnemius muscle were collected 0.5, 1, 2, 4, 8, 12, 24, and 48 h after administration. We also set up a control group, and mice in this group were sacrificed just before we started administering IXA at 0 h. At 4 h after administration, mice were allowed free access to AIN‐93 M. Plasma was isolated by centrifugation at 17 × 10^3 m/s^2 (5911, Kubota, Tokyo, Japan) for 5 min at 4°C. All tissues were dissected, weighed, and immediately frozen in liquid nitrogen. All samples were stored at −80°C until analysis.
(§1) Plasma samples were deconjugated by β‐glucuronidase type H‐1 (which has β‐glucuronidase and sulphatase activity; Sigma, St. Louis, MO, USA; G0751) to convert aglycon from conjugated metabolites of IXA and 8‐PN, as described in a previous report (Y. Tanaka et al., [2022]). Briefly, 100 μL of plasma was mixed with 900 μL of 0.1 mol/L sodium acetate buffer (pH 4.7), 200 μL of 50 mmol/L ascorbic acid, and 1 mL of 1.67 μkat/100 μL of β‐glucuronidase type H‐1, and then incubated for 30 min at 37°C. Then, 2.4 nmol of QTM was added to the samples as the internal standard. The liberated aglycone was extracted using ethyl acetate (Kanto Kagaku, 14,029‐2B).
(§2) The plasma and tissue extracts were evaporated using a Centrifugal Evaporator (EYERA, Tokyo, Japan, CVE‐3000). The samples were stored at −80°C until the next day. Then, the samples were dissolved in 120 μL of a mobile phase solution and divided into two test tubes. The first sample was injected into the HPLC with an ultraviolet detection system (Shimadzu, Kyoto, Japan).
(§3) IXA and 8‐PN concentrations were determined by their respective standard curves using an internal standard method. A Cadenza 3‐μm CD‐C18 HPLC column (CD005, 150 × 4.6 mm; Imtakt Corporation, Kyoto, Japan) was equipped for HPLC (λ = 295 nm). The mobile phase consisted of methanol:water:acetic acid (60:35:5, v/v/v). The flow rate was set at 1.0 mL/min. […] Because clear peaks over 4.5 pmol/sample were detected for IXA and 8‐PN by visual evaluation, we determined that these concentrations were the peak limit of detections for each flavonoid. We applied calibration curves in the IXA/QTM concentration ratio range of 0.007–35.1 (R ^2 = .9955).

[2] = Tissue and plasma accumulation after daily gavage administration of IXA to mice for 14 days; type: in vivo, C57/BL6 mice; details: IXA 30 mg/kg BW daily 14 days, 24 h after final administration
Procedure: Animal species, age, sex, initial BW, feeding conditions, and dosage method were the same as those for the single gavage administration test, but the dose was 30 mg/kg BW. […] Daily gavage administration without fasting was performed at 12:00 PM for 14 days. The final BW was 21–26 g. Blood, brain, thymus, heart, lung, liver, spleen, kidney, and gastrocnemius muscle were collected 24 h after the final administration. The sample collection method was the same as that for the single gavage administration test.
as §1
Tissue sample deconjugation was performed as described in a previous report with slight modifications (Tanaka et al., [2022]). Tissues were homogenized in phosphate‐buffered saline (pH 7.4), which was nine times the tissue volume. The tissue homogenate was incubated in 50 mmol/L ascorbic acid (one‐fifth the volume of phosphate‐buffered saline) and 1.67 μkat/100 μL of β‐glucuronidase type H‐1 in 0.1 mol/L sodium acetate buffer (pH 4.7, nine times the volume of the sample) for 2 h at 37°C. Then, 2.4 nmol of QTM was added to samples as an internal standard. The supernatant was isolated by centrifugation at 17 × 10^3 m/s^2 (Kubota) for 5 min at 4°C. Then, methanol (Kanto Kagaku, 25183‐2B) was added to the pellets, and they were shaken for 1 min. The methanol layer and pellets were separated by centrifugation at 17 × 10^3 m/s^2 (Kubota, RY1071‐A000) for 5 min at 4°C. Methanol extraction was repeated three times. Finally, methanol extracts were mixed with the supernatant (the composition of the mixture was 30% methanol) and then applied to an Inert Sep C8 (200 mg/3 mL; GL Sciences, Tokyo, Japan; 5010‐61082) cartridge. The cartridge was preconditioned with 6 mL of 2% acetic acid in methanol, and then 9 mL of 2% acetic acid in water. The extracted tissue was passed through the cartridge, and it was washed with 5 mL of 2% acetic acid in 30% methanol aq. The flavonoids were eluted with 10 mL of 2% acetic acid in methanol.
as §2, §3

[3] = parameters: method as in Possemiers et al., 2008; details: ref Possemiers et al., 2008; cited from earlier work
[4] = single oral IXA 50 mg/kg BW, plasma

IXA accumulation, single-ingestion test (at 24 h) ([1]; plasma, single IXA 50 mg/kg BW, 24 h): 0.2 ± 0.1 μmol/L of plasma | time at which IXA was increased further ([1]; plasma, single oral IXA 50 mg/kg BW): 8 h | IXA in plasma at 48 h after administration ([1]; single oral IXA 50 mg/kg BW, 48 h): not detected | T 1/2 (half-life in the mean elimination phase) [1, 4]: 1.43 h and 1.4 h | time until which detected in plasma after ingestion [1, 4]: 24 h | Cmax ([1]; single oral IXA 50 mg/kg BW, plasma, at 0.5 h, read-out: plasma maximum concentration (C max)): 3.95 ± 0.81 µM | AUC24h ([1]; single oral IXA 50 mg/kg BW, plasma, calculated using the mean at each time point): 18.2 µM·h | Cmax ([1]; single oral IXA 50 mg/kg BW, plasma, read-out: C max): 4 ± 0.8 µM | IXA accumulation, 14-day repeated-ingestion test ([2]; brain): 0.2 ± 0.1 nmol/g of tissue | IXA accumulation, 14-day repeated-ingestion test ([2]; heart): not detected | IXA accumulation, 14-day repeated-ingestion test ([2]; kidney): 5.8 ± 1.0 nmol/g of tissue | IXA accumulation, 14-day repeated-ingestion test ([2]; liver): 8.6 ± 2.9 nmol/g of tissue | IXA accumulation, 14-day repeated-ingestion test ([2]; lung): 3.2 ± 2.8 nmol/g of tissue | IXA accumulation, 14-day repeated-ingestion test ([2]; plasma): not detected | IXA accumulation, 14-day repeated-ingestion test ([2]; spleen): 3.4 ± 2.0 nmol/g of tissue | IXA accumulation, 14-day repeated-ingestion test ([2]; thymus): 4.3 ± 3.8 nmol/g of tissue
Substance: 4,7‐dihydroxy‐5‐methoxy‐8‐prenylflavanone [IXA]
rate of excretion into the feces [3]: approximately 47%
